Source: PubChem BioAssay (NCI)
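Exposure lasted 48 hours, with cells grown in 96-well plates and compounds tested at five concentrations. TGI denotes the concentration required for complete inhibition of growth.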

Legend:
Assay in all cases: DTP human tumour cell line panel, 48 h
786-0 renal = system: 786-0 renal
SK-MEL-28 melanoma = system: SK-MEL-28 melanoma
COLO 205 colon = system: COLO 205 colon
UACC-62 melanoma = system: UACC-62 melanoma
LOX IMVI melanoma = system: LOX IMVI melanoma
NCI-H522 lung = system: NCI-H522 lung
ACHN renal = system: ACHN renal
U251 CNS = system: U251 CNS
K-562 leukemia = system: K-562 leukemia
CCRF-CEM leukemia = system: CCRF-CEM leukemia
A498 renal = system: A498 renal
TK-10 renal = system: TK-10 renal
MDA-MB-435 = system: MDA-MB-435
UO-31 renal = system: UO-31 renal
SK-MEL-2 melanoma = system: SK-MEL-2 melanoma
UACC-257 melanoma = system: UACC-257 melanoma
NCI/ADR-RES ovarian = system: NCI/ADR-RES ovarian
CAKI-1 renal = system: CAKI-1 renal
MDA-MB-231 breast = system: MDA-MB-231 breast
OVCAR-4 ovarian = system: OVCAR-4 ovarian
NCI-H23 lung = system: NCI-H23 lung
T-47D breast = system: T-47D breast
KM12 colon = system: KM12 colon
SF-268 CNS = system: SF-268 CNS
HCT-116 colon = system: HCT-116 colon
A549 NSCLC = system: A549 NSCLC
SF-539 CNS = system: SF-539 CNS
HOP-92 NSCLC = system: HOP-92 NSCLC
SW-620 colon = system: SW-620 colon
BT-549 breast = system: BT-549 breast
HL-60(TB) leukemia = system: HL-60(TB) leukemia
HCT-15 colon = system: HCT-15 colon
HS 578T breast = system: HS 578T breast
MALME-3M melanoma = system: MALME-3M melanoma
M14 melanoma = system: M14 melanoma
MOLT-4 leukemia = system: MOLT-4 leukemia
MCF7 breast = system: MCF7 breast
HOP-62 NSCLC = system: HOP-62 NSCLC
SK-OV-3 ovarian = system: SK-OV-3 ovarian
NCI-H460 lung = system: NCI-H460 lung
DU-145 prostate = system: DU-145 prostate
RXF 393 renal = system: RXF 393 renal
OVCAR-3 ovarian = system: OVCAR-3 ovarian
EKVX NSCLC = system: EKVX NSCLC
OVCAR-8 ovarian = system: OVCAR-8 ovarian
HT29 colon = system: HT29 colon
RPMI-8226 leukemia = system: RPMI-8226 leukemia
IGROV1 ovarian = system: IGROV1 ovarian
PC-3 prostate = system: PC-3 prostate
SNB-75 CNS = system: SNB-75 CNS
SF-295 CNS = system: SF-295 CNS
SK-MEL-5 melanoma = system: SK-MEL-5 melanoma
SN12C renal = system: SN12C renal
SNB-19 CNS = system: SNB-19 CNS

SMILES: O=C1C=Cc2cscc21
- TGI (786-0 renal): 31.4 µM
- TGI (SK-MEL-28 melanoma): > 100 µM
- TGI (COLO 205 colon): > 100 µM
- TGI (UACC-62 melanoma): > 100 µM
- TGI (LOX IMVI melanoma): > 100 µM
- TGI (NCI-H522 lung): 42.5 µM
- TGI (ACHN renal): > 100 µM
- TGI (U251 CNS): > 100 µM
- TGI (K-562 leukemia): > 100 µM
- TGI (CCRF-CEM leukemia): 52.6 µM
- TGI (A498 renal): > 100 µM
- TGI (TK-10 renal): > 100 µM
- TGI (MDA-MB-435): > 100 µM
- TGI (UO-31 renal): 85.8 µM
- TGI (SK-MEL-2 melanoma): > 100 µM
- TGI (UACC-257 melanoma): > 100 µM
- TGI (NCI/ADR-RES ovarian): > 100 µM
- TGI (CAKI-1 renal): 67 µM
- TGI (MDA-MB-231 breast): 80.6 µM
- TGI (OVCAR-4 ovarian): > 100 µM
- TGI (NCI-H23 lung): > 100 µM
- TGI (T-47D breast): 81.5 µM
- TGI (KM12 colon): > 100 µM
- TGI (SF-268 CNS): > 100 µM
- TGI (HCT-116 colon): 29.3 µM
- TGI (A549 NSCLC): > 100 µM
- TGI (SF-539 CNS): > 100 µM
- TGI (HOP-92 NSCLC): > 100 µM
- TGI (SW-620 colon): > 100 µM
- TGI (BT-549 breast): > 100 µM
- TGI (HL-60(TB) leukemia): > 100 µM
- TGI (HCT-15 colon): 66.9 µM
- TGI (HS 578T breast): > 100 µM
- TGI (MALME-3M melanoma): 63.7 µM
- TGI (M14 melanoma): 84.5 µM
- TGI (MOLT-4 leukemia): 37.5 µM
- TGI (MCF7 breast): 68.1 µM
- TGI (HOP-62 NSCLC): > 100 µM
- TGI (SK-OV-3 ovarian): > 100 µM
- TGI (NCI-H460 lung): > 100 µM
- TGI (DU-145 prostate): > 100 µM
- TGI (RXF 393 renal): 32.8 µM
- TGI (OVCAR-3 ovarian): 47.7 µM
- TGI (EKVX NSCLC): > 100 µM
- TGI (OVCAR-8 ovarian): > 100 µM
- TGI (HT29 colon): > 100 µM
- TGI (RPMI-8226 leukemia): > 100 µM
- TGI (IGROV1 ovarian): > 100 µM
- TGI (PC-3 prostate): > 100 µM
- TGI (SNB-75 CNS): > 100 µM
- TGI (SF-295 CNS): > 100 µM
- TGI (SK-MEL-5 melanoma): > 100 µM
- TGI (SN12C renal): 96.8 µM
- TGI (SNB-19 CNS): > 100 µM
